Source: patent US9115137B2, “2,3,4,5-tetrahydro-1H-pyrido[4,3-B]indole compounds and methods of use thereof” (priority 2008, dated 2015)

How the values were obtained:
[1] = target: T1, rat adrenergic α1A receptor (Rattus norvegicus, UniProt P43140); assay: Adrenergic α1A radioligand binding ([3H]Prozosin); conditions: compound at 1 μM; Wistar Rat submaxillary glands; read-out: Adrenergic (1 μM) α1A, percent inhibition of specific binding
T1 construct: obtained from Wistar Rat submaxillary glands; from tissue; host or cells: Wistar rat submaxillary glands
T1 sequence (P43140 1-466): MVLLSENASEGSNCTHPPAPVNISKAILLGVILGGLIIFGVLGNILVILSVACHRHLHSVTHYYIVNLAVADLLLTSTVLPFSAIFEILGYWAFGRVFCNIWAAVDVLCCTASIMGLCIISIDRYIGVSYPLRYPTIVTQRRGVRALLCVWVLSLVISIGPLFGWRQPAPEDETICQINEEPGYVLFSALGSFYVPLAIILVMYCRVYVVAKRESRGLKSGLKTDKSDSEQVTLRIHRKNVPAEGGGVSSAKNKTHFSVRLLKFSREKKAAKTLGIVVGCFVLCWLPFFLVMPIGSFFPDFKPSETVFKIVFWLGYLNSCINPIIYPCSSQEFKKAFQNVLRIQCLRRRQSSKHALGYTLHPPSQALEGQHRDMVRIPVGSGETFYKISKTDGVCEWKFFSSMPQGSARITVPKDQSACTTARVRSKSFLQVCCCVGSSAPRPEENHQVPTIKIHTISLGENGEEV
Protocol: To evaluate in radioligand binding assays the activity of compounds of the invention, rat adrenergic α1A receptor obtained from Wistar Rat submaxillary glands (Michel, A. D. et al., Br. J. Pharmacol. 98:883, 1989) in a modified Tris-HCl buffer (50 mM Tris-HCl buffer, pH 7.4, 0.5 mM EDTA) was used. Compounds of the invention were incubated with 0.25 nM [^3H]Prozosin for 60 minutes at 25° C. Non-specific binding was estimated in the presence of 10 μM phentolamine. Receptor proteins were filtered and washed, the filters were then counted to determine [^3H]Prozosin specifically bound. Compounds of the invention were screened at 1 μM or lower, using 1% DMSO as vehicle. Compounds of the invention were tested in this biochemical assay and percent inhibition of specific binding was determined. Biochemical assay results are presented as the percent inhibition of specific binding in Table 6.

[2] = target: T2, human recombinant adrenergic α2C receptor (Homo sapiens, UniProt P18825); assay: Adrenergic α2C radioligand binding ([3H]MK-912); conditions: compound at 1 μM; insect Sf9 cells; read-out: Adrenergic (1 μM) α2C, percent inhibition of specific binding
T2 construct: expressed in transfected cells; host or cells: insect Sf9 cells
T2 sequence (P18825 1-462): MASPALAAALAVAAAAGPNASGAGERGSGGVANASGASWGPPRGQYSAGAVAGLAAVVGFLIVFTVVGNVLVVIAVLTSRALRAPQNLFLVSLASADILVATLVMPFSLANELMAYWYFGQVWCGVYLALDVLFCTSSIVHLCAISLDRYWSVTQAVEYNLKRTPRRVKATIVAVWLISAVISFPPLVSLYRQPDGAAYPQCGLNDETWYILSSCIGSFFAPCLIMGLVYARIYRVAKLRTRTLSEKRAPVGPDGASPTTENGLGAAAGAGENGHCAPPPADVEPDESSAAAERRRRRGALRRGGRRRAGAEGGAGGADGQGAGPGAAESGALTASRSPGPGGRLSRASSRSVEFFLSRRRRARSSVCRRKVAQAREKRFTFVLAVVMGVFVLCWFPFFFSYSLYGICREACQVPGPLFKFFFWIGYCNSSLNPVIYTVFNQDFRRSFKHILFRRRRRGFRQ
Protocol: To evaluate in radioligand binding assays the activity of compounds of the invention, human recombinant adrenergic α2C receptor expressed in insect Sf9 cells (Uhlen S et al. J Pharmacol Exp Ther. 271:1558, 1994) in a modified Tris-HCl buffer (50 mM Tris-HCl, pH 7.4, 12.5 mM MgCl2, 2 mM EDTA) was used. Compounds of the invention were incubated with 1 nM [^3H]MK-912 for 60 minutes at 25° C. Non-specific binding was estimated in the presence of 10 μM WB-4101. Receptor proteins were filtered and washed, the filters were then counted to determine [^3H]MK-912 specifically bound. Compounds were screened at 1 μM or lower, using 1% DMSO as vehicle. Compounds of the invention were tested in this biochemical assay and percent inhibition of specific binding was determined. Biochemical assay results are presented as the percent inhibition of specific binding in Table 6.

[3] = target: T3, human recombinant serotonin (5-Hydroxytryptamine) 5-HT5A receptor (Homo sapiens, UniProt P47898); assay: Serotonin 5-HT5A radioligand binding ([3H]LSD); conditions: compound at 1 μM; CHO-K1 cells; read-out: Serotonin (1 μM) 5-HT5A, percent inhibition of specific binding
T3 construct: expressed in transfected cells; host or cells: CHO-K1 cells
Protocol: To evaluate in radioligand binding assays the activity of compounds of the invention, human recombinant serotonin (5-Hydroxytryptamine) 5-HT5A receptor expressed in Chinese hamster ovary (CHO-K1) cells (Rees, S. et al., FEBS Lett. 355:242, 1994) in a modified Tris-HCl buffer (50 mM Tris-HCl, pH 7.4, 10 mM MgCl2, 0.5 mM EDTA) was used. Compounds of the invention were incubated with 1.7 nM [^3H]Lysergic acid diethylamide (LSD) for 60 minutes at 37° C. Non-specific binding was estimated in the presence of 100 μM Serotonin (5-HT). Receptor proteins were filtered and washed, the filters were then counted to determine [^3H]LSD specifically bound. Compounds were screened at 1 μM or lower, using 1% DMSO as vehicle. Compounds of the invention were tested in this biochemical assay and percent inhibition of specific binding was determined. Biochemical assay results are presented as the percent inhibition of specific binding in Table 7.

T3 sequence (P47898 whole entry): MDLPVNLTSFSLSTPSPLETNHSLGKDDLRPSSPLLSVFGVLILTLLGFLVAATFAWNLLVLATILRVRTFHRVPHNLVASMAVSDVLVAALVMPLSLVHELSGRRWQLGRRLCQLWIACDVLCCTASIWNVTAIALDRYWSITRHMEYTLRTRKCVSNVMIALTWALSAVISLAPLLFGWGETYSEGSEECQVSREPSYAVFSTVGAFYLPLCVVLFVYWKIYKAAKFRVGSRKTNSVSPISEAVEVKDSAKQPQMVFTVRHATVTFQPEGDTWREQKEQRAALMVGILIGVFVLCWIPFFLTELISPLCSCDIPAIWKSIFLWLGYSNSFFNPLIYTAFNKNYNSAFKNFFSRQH

Row | Structure (SMILES) | inhibition at 1 µM [1] | inhibition at 1 µM [2] | inhibition at 1 µM [3]
1 | CCOC(=O)CCn1c2c(c3cc(C)ccc31)CN(C)CC2 [CD1, ethyl 3-(1,2,3,4-tetrahydro-2,8-dimethylpyrido[4,3-b]indol-5-yl)propanoate] | 79% | 42% | 39%
2 | Cc1ccc2c(c1)c1c(n2CC#N)CCN(C)C1 [CD61, 2-(1,2,3,4-tetrahydro-2,8-dimethylpyrido[4,3-b]indol-5-yl)acetonitrile] | 82% | 39% | 52%
3 | C#CCn1c2c(c3cc(C)ccc31)CN(C)CC2 [CD73, 2,8-dimethyl-5-(prop-2-ynyl)-2,3,4,5-tetrahydro-1H-pyrido[4,3-b]indole] | 65% | 43% | 63%
4 | CNC(=O)CCn1c2c(c3cc(C)ccc31)CN(C)CC2 [Compound 1, 3-(1,2,3,4-tetrahydro-2,8-dimethylpyrido[4,3-b]indol-5-yl)-N-methylpropanamide] | 5% | 4% | 4%
5 | CCNC(=O)CCn1c2c(c3cc(C)ccc31)CN(C)CC2 [Compound 2, N-ethyl-3-(1,2,3,4-tetrahydro-2,8-dimethylpyrido[4,3-b]indol-5-yl)propanamide] | 10% | 2% | 14%
6 | Cc1ccc2c(c1)c1c(n2CCC(=O)NC2CCCCC2)CCN(C)C1 [Compound 3, N-cyclohexyl-3-(1,2,3,4-tetrahydro-2,8-dimethylpyrido[4,3-b]indol-5-yl)propanamide] | 8% | 1% | 35%
7 | Cc1ccc2c(c1)c1c(n2CCC(=O)NC2CCCC2)CCN(C)C1 [Compound 4, N-cyclopentyl-3-(1,2,3,4-tetrahydro-2,8-dimethylpyrido[4,3-b]indol-5-yl)propanamide] | 35% | 4% | 47%
8 | CCOC(=O)CCCn1c2c(c3cc(C)ccc31)CN(C)CC2 [Compound 5, ethyl 4-(1,2,3,4-tetrahydro-2,8-dimethylpyrido[4,3-b]indol-5-yl)butanoate] | 69% | 50% | 62%
9 | CCNC(=O)CCCn1c2c(c3cc(C)ccc31)CN(C)CC2 [Compound 6, N-ethyl-4-(1,2,3,4-tetrahydro-2,8-dimethylpyrido[4,3-b]indol-5-yl)butanamide] | 18% | 48% | 25%
10 | Cc1ccc2c(c1)c1c(n2CCNC(=O)OCC(Cl)(Cl)Cl)CCN(C)C1 [Compound 8, 2,2,2-trichloroethyl 2-(1,2,3,4-tetrahydro-2,8-dimethylpyrido[4,3-b]indol-5-yl)ethylcarbamate] | 82% | 22% | 60%
11 | Cc1ccc2c(c1)c1c(n2CCNC(=O)C2CCCNC2)CCN(C)C1 (stereo not drawn) [Compound 9, N-(2-(1,2,3,4-tetrahydro-2,8-dimethylpyrido[4,3-b]indol-5-yl)ethyl)piperidine-3-carboxamide] | 5% | -8% | -6%
